Laboratory results reported in patent US6653331B2, “Targeted drug delivery using sulfonamide derivatives” (Pharmacia & Upjohn Company, priority 1996, dated 2003).

Tests used:
CACO-2 cells = test: Metabolism in CACO-2 cell culture; assay type: in vitro ADME, human
Procedure: (§1) The following observations were made during in-vivo (animal models) and in-vitro (cell cultures) studies of the metabolic disposition of the title compound.
(§2) The protected title compound of J-1 is cleaved upon in-vitro incubation with GST/GSH. Enzymatic cleavage of J-1 yields sulfite (SO3^2−), azide (N3^−), and the glutathione-(p-nitrobenzene) conjugate.

human hepatocytes = test: In-vitro incubation with human hepatocytes; assay type: in vitro ADME
Description: as §1

[1] = test system: Glutathione-S-transferase (GST); test: Sulfonamidase activity of commercial GST (isozyme mixture from rat liver); assay type: biochemical; settings: title compound and GSH as substrates
Procedure: Indeed, most of the activity of 10 ml of rat liver cytosol extract was retained by a GSH-Sepharose column (3.9 ml bed volume), packed and equilibrated in 20 mM Hepes buffer, pH 7.5, while the majority of the cytosolic protein was found in the effluent. After the column was washed extensively with up to 1 mM GSH, it was eluted with 5, 20, and 50 mM GSH. The various fractions were dialyzed against 20 mM Hepes buffer, pH 7.5 and tested for enzymatic activity using the title compound and GSH as substrates; the fractions were then subjected to SDS-PAGE. […] The GSH dependence for activity, the ability to purify the enzyme in a single step by a GSH affinity column, and the Mr˜25,000 pointed to Glutathione-S-transferase (GST). […] The commercial preparation was a mixture of GST isozymes purified from rat liver.

GSTM1-1 = target: T1, GSTM1-1 (Rattus norvegicus, UniProt P04905); test: Sulfonamidase activity of reconstituted isozyme GSTM1-1; assay type: biochemical; settings: M1 isoform of rat liver cytosol
T1 construct: The commercial preparation was a mixture of GST isozymes purified from rat liver; purchased; host or cells: rat liver (tissue-derived)
T1 sequence (P04905 2-218 limits assumed): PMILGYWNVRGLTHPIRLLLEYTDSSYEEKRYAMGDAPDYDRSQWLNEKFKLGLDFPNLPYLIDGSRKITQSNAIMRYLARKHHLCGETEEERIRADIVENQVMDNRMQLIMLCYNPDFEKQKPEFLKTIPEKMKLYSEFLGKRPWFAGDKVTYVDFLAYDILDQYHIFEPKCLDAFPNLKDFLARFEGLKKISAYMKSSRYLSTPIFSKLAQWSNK
Description: (§3) As GST exists in a myriad of isoforms, which are active as homodimers and heterodimers, the specific isozyme(s) which was responsible for sulfonamide bond cleavage in the title compound, was investigated. The commercial isozyme mixture was subjected to RP-HPLC on a C18 column (0.45×25 cm). The separation profile of the various isozymes was very similar to that of published work carried out in conditions almost identical to these conditions. […] The HPLC samples were subjected to lyophilization and refolded in an Na-phosphate buffer at pH 6.8. Alternatively, refolding was carried out by subjecting the HPLC samples to a 16 hours dialysis against Na-phosphate, pH 6.8 followed by a 6 hours dialysis against Na-phosphate, pH 7.4; the refolding process was carried out at 4° C. The title compound's sulfonamidase activity of the reconstituted isozymes was proven for the A3 homodimeric isoform (GSTA3-3), and for the M1 isoform (GSTM1-1) of rat liver cytosol. The identity of the A3 isozyme was confirmed by N-terminus amino acid sequence.

rat hepatocytes = test: In-vitro incubation with rat hepatocytes; assay type: in vitro ADME
Description: as §1

GST = test: Incubation with GST/GSH, cleavage of the sulfonamide bond; assay type: biochemical
Procedure: The protected title compound of formula J-1 is deprotected by GST/GSH under mild conditions. Incubations of 100 μM of this compound and 500 μM GSH with GST (0.5 mg protein /mL) are carried out in 100 mM phosphate buffer, pH 7.4 for 1 hour, at 37° C. in a volume of 0.5 mL. The cleavage of sulfonamide bond is essentially 100% complete after one hour incubation to yield the compound of formula J-2.
as §2

GSTA3-3 = target: T2, GSTA3-3 (Rattus norvegicus, UniProt P04904); test: Sulfonamidase activity of reconstituted isozyme GSTA3-3; assay type: biochemical; settings: A3 homodimeric isoform of rat liver cytosol
T2 construct: The commercial preparation was a mixture of GST isozymes purified from rat liver; purchased; host or cells: rat liver (tissue-derived)
T2 sequence (P04904 2-221 limits assumed): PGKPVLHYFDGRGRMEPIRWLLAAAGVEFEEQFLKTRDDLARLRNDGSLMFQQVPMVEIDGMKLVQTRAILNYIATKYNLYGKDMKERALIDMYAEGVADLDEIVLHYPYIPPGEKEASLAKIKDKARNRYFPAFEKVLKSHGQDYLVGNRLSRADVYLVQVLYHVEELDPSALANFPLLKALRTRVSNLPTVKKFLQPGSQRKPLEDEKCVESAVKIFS
Description: as §3

intracellular GSH = settings: cited from earlier work
[2] = In-vivo metabolic disposition in the dog
Description: as §1

[3] = In-vivo metabolic disposition in the rat
Description: as §1

cells = test: Cytotoxicity in the presence of GST inhibitors; assay type: cell-based
Description: Azide, N3^−, is an agent which is known to be cytotoxic to respiring cells. Azide inhibits ATP production via its interference with the cytochrome electron transport chain involved in the terminal stage of oxidative phosphorylation. The agent is markedly cytotoxic to cells relying on aerobic glycolysis/oxidative phosphorylation as a source of energy. […] Metabolism of J-1 within cells by GST releases the potent azide cytotoxin. Thus, covalent coupling of azide with the p-nitrobenzene sulfonyl moiety masks the cytotoxity of azide until cleavage by GST releases the active cytotoxin.

Question: With `CCC[C@@]1(CCc2ccccc2)CC(O)=C([C@H](CC)c2cccc(NS(=O)(=O)c3ccc(C#N)cn3)c2)C(=O)O1` (relative stereo) [J-1, [R-(R*,R*)]-5-Cyano-N-[3-[1-[5,6-dihydro-4-hydroxy-2-oxo-6-(2-phenylethyl)-6-propyl-2H-pyran-3-yl]propyl]phenyl]-2-pyridine-sulfonamide] as the molecule, how does the “sulfonamide cleavage by CACO-2 cells” value (CACO-2 cells; CACO-2, human colon adenocarcinoma cell line) read?
Answer: significant sulfonamide cleavage

Question: And the “rate of cleavage in CACO-2 cells compared with normal cells” value (CACO-2 cells; CACO-2 cells versus normal cells)?
Answer: markedly faster

Question: And the “sulfonamide cleavage with release of J-2” value (human hepatocytes)?
Answer: underwent sulfonamide cleavage

Question: And the “sulfonamidase activity of commercial GST” value [1]?
Answer: high sulfonamidase activity

Question: And the “sulfonamidase activity of reconstituted isozyme” value (GSTM1-1)?
Answer: proven

Question: What about the “sulfonamide cleavage with release of J-2” value (rat hepatocytes) of the same molecule?
Answer: underwent sulfonamide cleavage

Question: What about the “cleavage of sulfonamide bond” value (GST; 100 μM compound, 500 μM GSH, GST 0.5 mg protein/mL, 100 mM phosphate buffer pH 7.4, 1 hour, 37° C.) of the same molecule?
Answer: ~100%

Question: What about the “sulfonamidase activity of reconstituted isozyme” value (GSTA3-3) of the same molecule?
Answer: proven

Question: For `C=C(CC)C(=O)c1ccc(OCC(=O)O)c(Cl)c1Cl` [Ethacrynic Acid], which “effect on intracellular GSH” value (intracellular GSH) is on record?
Answer: deplete intracellular GSH

Question: What does the source list for `CCC[C@@]1(CCc2ccccc2)CC(O)=C([C@H](CC)c2cccc(N)c2)C(=O)O1` [J-2]?
Answer: circulating metabolite of the title compound in the blood [2]: major circulating metabolite; circulating metabolite of the title compound in the blood [3]: major circulating metabolite

Question: Which results are given for “[R-(R*,R*)]-5-Cyano-N-[3-[1-[5,6-dihydro-4-hydroxy-2-oxo-6-(2-phenylethyl)-6-propyl-2H-pyran-3-yl]propyl]phenyl]-2-pyridine-sulfonamide [J-1]”?
Answer: metabolism to form the azide in the presence of known GST inhibitors (CACO-2 cells; known GST inhibitors present): blocked; metabolism in CACO-2 cell culture (CACO-2 cells; products compared with enzymatic GST/GSH cleavage): yield the same products; cytotoxicity (cells): relatively non-cytotoxic; cleavage upon in-vitro incubation with GST/GSH (GST; yields sulfite, azide and the glutathione-(p-nitrobenzene) conjugate): cleaved
